Data on four compounds can be found in the NIST ThermoML archive (doi:10.1021/je049657g).

Each structure is given as a SMILES string. Numbers after ± are expanded uncertainties.

The conditions of the data set: 298.15 K, Liquid; for viscosity: 101 kPa, Capillary tube (Ostwald / Ubbelohde) method; for mass density: 101.33 kPa.

As a reminder, the viscosity is the resistance of a fluid to flow. What is called mass density is the mass of a sample divided by its volume. Take `O=C1CCCN1` [2-pyrrolidinone]: the viscosity is listed as 13.19 ± 0.17 mPa·s and the mass density stood at 1106.82 ± 2 kg/m3.
Regarding `CC(=O)N(C)C` [N,N-dimethylethanamide], the viscosity is reported as 0.944 ± 0.008 mPa·s and the mass density stood at 936.54 ± 1.4 kg/m3.
Regarding `CN1CCCC1=O` [N-methylpyrrolidone], the viscosity is 1.672 ± 0.014 mPa·s and the mass density is listed as 1027.91 ± 1.6 kg/m3.
As to `CN(C)C=O` [dimethylformamide], the viscosity is 0.804 ± 0.007 mPa·s and the mass density stood at 943.65 ± 1.5 kg/m3.
